Where a name gives a salt, the structure may show the parent alone.
How the values were obtained:
human μ-opioid receptor = human μ-opioid receptor (Homo sapiens (Human), UniProt P35372); test: Antagonist activity test using [35S]-GTPγS bond as index using human μ-opioid receptor-expressing cell membrane; type: biochemical
Method: Cells in which a human μ-opioid receptor had been highly expressed was purchased from ChanTest (Cleveland). The cells were cultured in a carbon dioxide gas culturing apparatus by using a Ham's F12 culture medium (Invitrogen) containing 10% of fetal bovine blood serum, 1% of non-essential amino acids, 0.4 mg/ml of G418, 100 U/ml of penicillin and 100 μg/ml of streptomycin. The cultured cells were suspended by using a 0.25% trypsin 1 mM EDTA solution, the suspension was collected by using phosphate-buffered saline and centrifuged at 4° C. and 1,000 rpm for 10 minute to remove the supernatant, whereby a cell mass was obtained. […] Similar homogenization and centrifugation operations were repeated on the sediment, a homogenized buffer was added again to the obtained sediment, and the resultant was similarly homogenized to give a membrane fraction solution. The obtained membrane fraction solution was dispensed, rapidly frozen and stored under freezing at −70° C. or less until use. Furthermore, the protein concentration of the obtained membrane fraction solution was measured by using a BCA protein Assay Kit (Cat. 23227, Pierce) according to the protocol attached to the kit.
The cell membrane fraction solution in which the human μ-opioid receptor had expressed, which had been stored under freezing, was melted, a GTP assay buffer (100 mM NaCl, 5 mM MgCl2, 1 mM EDTA-containing 50 mM Hepes (pH 7.4)) was added thereto, and the resultant was homogenized repeatedly twice by using a Polytron homogenizer (SMT Multi Disperser PB95) under ice cooling at 12,000 rpm for 20 seconds to give a homogeneous solution, and the homogeneous solution was diluted to 0.036 mg/ml with a GTP assay buffer containing 18.2 μM of GDP (final concentration: […]). The dilution was incubated for 15 minutes or more under ice cooling until the reaction was initiated. […] [^35S]-GTPγS (NEG030X, Perkinelmer) was diluted with a GTP assay buffer so as to be 0.616 nM (final concentration: 0.08 nM). The resultant was diluted with a GTP assay buffer so as to be 200 nM (final concentration: 10 nM) by using [D-Ala^2, N-Me-Phe^4, Gly^5-ol]-enkephalinacetate (DAMGO, Sigma) as a μ-opioid receptor agonist. WGA Coated PVT SPA Beads (RPNQ0001, Perkinelmer) were added so as to be 20 mg/ml with a GTP assay buffer, and the resultant was suspended (final concentration: 1 mg/well). 4 μL/well of a test substance solution, 10 μL/well of a DAMGO solution, 26 μL/well of a [^35S]-GTPγS solution, […] of a suspension liquid of WGA Coated PVT SPA Beads, and 110 μL/well of the membrane fraction solution were added to a 96 well plate (1450-401, Perkinelmer), the top part of the plate was sealed, and a reaction was performed at 30° C. for 60 minutes under stirring with a plate shaker. For each measurement plate, a well to which DMSO had been added instead of the test substance, and a well to which DMSO had been added instead of the test substance and a GTP assay buffer had been added instead of the DAMGO solution were prepared. Furthermore, after the reaction was completed, the reactant was centrifuged at room temperature and 1,000 rpm for 3 minutes, and the radioactivity was measured by a microplate scintillation luminescence counter (Perkinelmer).
The IC50 value of the test substance was calculated by using Graphpad Prism 5.

in vitro = in vitro ADME, mice; conditions: Crl:CD-1 (ICR), mouse, pH 7.4; murine serum, equilibrium dialysis, 37° C., 5 to 6 hours; read-out: Protein binding rate (converted)
Method: The protein binding rate was determined by equilibrium dialysis method using the RED Device (8K MWCO, Rapid Equilibrium Dialysis Device, Thermo Scientific). The test substances that had been dissolved in DMSO were added to the serum that was collected from Crl: CD-1 (ICR) mice fasted overnight, so that the final concentration of DMSO became 1% (v/v). The serum to which the test substance had been added was added to the inner side of the dialysis membrane of the RED Device, and PBS (phosphate buffer saline, pH 7.4) containing 0.01% (v/v) Tween 80 was added to the outside in accordance with the method for using the RED Device and incubated at 37° C. for 5 to 6 hours with ellipsoidal shaking at 100 rpm so that the concentration of the unbound test substance in the serum and the concentration of the test substance in the PBS reached equilibrium. After the incubation was completed, the respective solutions were collected and stored under freezing at −60° C. or less as measurement samples. The proteins were removed from the measurement sample by adding acetonitrile in an amount of 5-fold or more of the amount of the internal standard substance and the serum sample, and the supernatants were measured by LC/MS/MS (liquid chromatograph—triple quadrupole mass spectrometer). The serum samples were measured after suitably diluting with distilled water as necessary.
A: the concentration of the test substance in the PBS sample
B: the concentration of the test substance in the serum sample

[1] = tested on: pruritus mice model to which morphine had been intracisternally administered; test: Anti-pruritic effect in pruritus mice model to which morphine had been intracisternally administered; type: in vivo; conditions: Mus musculus; oral administration, male ICR mice, inhibition of morphine-induced scratching behavior; read-out: ED50
Method: As experimental animals, male ICR (Cr1j: CD1 (ICR): Charles River Japan) mice were used at 5 to 6-week old. The mice were placed in an acrylic cage (colorless and transparent, W 13.5 cm×D 9.5 cm×H 40 cm) for observing scratching behavior for 30 minutes or more to thereby allow the mice to get used to the observation environment, and the test substance solutions were forcedly orally administered to the test substance-administered groups. In addition, an administration vehicle was forcedly orally administered to the normal control group and the pathological control group. A necessary amount of the test substance was weighed and formed into a micropowder in an agate mortar, an administration vehicle, a 0.5 w/v % methyl cellulose 400 solution (Wako Pure Chemical Industries Ltd.) was added little by little, and preparation was performed by suspending or dissolving so as to give an intended concentration (from 0.025 to 3 mg/ml). The test doses were preset to suitable doses in the range in which the maximum dose is 30 mg/10 ml/kg.
Based on 30 minutes after the forced oral administration of the test substance as a criterion, the time for the intracisternal administration of morphine was suitably set up to 120 minutes after at the maximum, with consideration for the times of maximum plasma concentration of the respective test substances, in the case when the in vivo pharmacokinetics of the test substance had been confirmed in advance. Furthermore, saline was intracisternally administered to the normal control group, and the above-mentioned morphine solution was intracisternally administered to the pathogenic control group, so as to be 5 μL/site at the same time as that of the test substance group after the forced oral administration of the administration vehicle in either case.
The behavior of each mouse within 60 minutes from the intracisternal administration of the morphine solution or saline was recorded by a digital video camera that was installed immediately above the acrylic cage, the images were stored in a digital video recorder, and the number of frequency of the scratching behavior was measured. The number of frequency of the scratching behavior was measured with deeming a behavior in which the mouse raised its hindlimb, scratched the facial surface and the peripheral sites thereof, and got the hindlimb off from the body within 30 minutes from after the intracisternal administration of the morphine or saline as one time.
The anti-pruritic effect of each test substance was obtained as follows. As an inhibition ratio against the number of frequency of the scratching behavior on the pathological control group, the inhibition ratio (%) of the respective individuals and the average value thereof were calculated from the following formula, and an ED50 value was calculated based on the obtained inhibition ratio. Inhibition ratio of each individual (%)={1−(A−Vehicle)/(Morphine−Vehicle)}×100 Morphine: the average of the scratching number of the pathological control group Vehicle: the average of the scratching number of the normal control group A: the scratching number of each individual in the test substance-administered group

[2] = Plasma concentration of test substance at ED50 value (mice, LC/MS/MS); type: in vivo; conditions: at the ED50 value, at time of morphine administration, oral, linear regression from two doses
Method: The concentration of the test substances in blood plasma was confirmed by using mice of the same week-old for the same dose as that used in the evaluation of the anti-pruritic effect. The test substance was administered by forced oral administration of an administration vehicle prepared in a similar manner to that in the evaluation of the anti-pruritic effect under a non-fasting condition. The blood samples were collected from the orbital venous plexus, within from 15 minutes after the administration of the test substance to after 180 minutes at the maximum, for multiple times including the timing at which the morphine solution was intracisternally administered, under inhalation anesthesia with diethyl ether or isoflurane using a heparin-treated hematocrit tubes. The collected blood samples were immediately ice-cooled and centrifuged at 1,800 g for 15 minutes at 4° C., and the plasma fractions were transferred and stored under freezing at −30° C. or less until measurement.
The concentrations of the test substances in plasma were measured using LC/MS/MS. Furthermore, as the measurement samples for LC/MS/MS, the supernatants obtained by adding an internal standard substance and acetonitrile in an amount within a range from 5-fold to 10-fold of the amount of the plasma to the collected plasma samples, and removing proteins therefrom, was used.

hERG current = hERG current (Homo sapiens (Human), UniProt Q12809); test: cell-based
Chain of hERG current (Q12809 whole entry): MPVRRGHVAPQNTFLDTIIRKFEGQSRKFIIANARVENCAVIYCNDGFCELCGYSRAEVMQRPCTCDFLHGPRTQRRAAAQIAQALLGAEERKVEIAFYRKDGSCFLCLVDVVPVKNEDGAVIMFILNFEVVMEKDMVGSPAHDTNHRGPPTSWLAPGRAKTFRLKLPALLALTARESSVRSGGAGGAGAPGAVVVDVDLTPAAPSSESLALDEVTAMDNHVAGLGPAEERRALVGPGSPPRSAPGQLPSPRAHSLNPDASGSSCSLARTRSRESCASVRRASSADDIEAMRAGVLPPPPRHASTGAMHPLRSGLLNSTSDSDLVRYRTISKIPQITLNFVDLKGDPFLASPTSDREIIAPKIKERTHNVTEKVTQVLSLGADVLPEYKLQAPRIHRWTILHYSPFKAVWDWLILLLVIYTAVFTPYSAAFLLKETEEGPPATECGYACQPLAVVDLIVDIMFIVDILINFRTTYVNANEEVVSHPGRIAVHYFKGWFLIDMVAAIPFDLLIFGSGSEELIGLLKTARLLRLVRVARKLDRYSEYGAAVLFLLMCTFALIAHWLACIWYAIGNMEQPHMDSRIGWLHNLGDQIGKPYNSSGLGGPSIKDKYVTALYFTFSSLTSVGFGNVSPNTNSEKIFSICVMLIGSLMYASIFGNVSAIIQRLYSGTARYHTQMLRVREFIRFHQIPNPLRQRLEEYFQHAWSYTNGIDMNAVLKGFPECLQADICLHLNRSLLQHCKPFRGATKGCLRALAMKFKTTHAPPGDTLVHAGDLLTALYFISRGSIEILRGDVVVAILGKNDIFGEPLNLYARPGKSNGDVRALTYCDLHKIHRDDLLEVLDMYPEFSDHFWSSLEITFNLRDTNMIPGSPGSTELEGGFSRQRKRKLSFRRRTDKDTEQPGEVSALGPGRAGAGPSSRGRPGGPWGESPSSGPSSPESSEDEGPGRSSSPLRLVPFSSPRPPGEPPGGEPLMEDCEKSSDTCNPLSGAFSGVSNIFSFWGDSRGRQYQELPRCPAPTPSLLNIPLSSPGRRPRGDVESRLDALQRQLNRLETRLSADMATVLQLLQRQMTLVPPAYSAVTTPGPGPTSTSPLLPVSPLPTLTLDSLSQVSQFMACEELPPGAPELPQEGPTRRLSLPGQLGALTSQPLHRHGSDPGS
Excerpt: A: the suppression rate (%) of the test substance in each cell
B: the average suppression rate (%) of the vehicle control group

Row | Compound | IC50 (human μ-opioid receptor) | fraction unbound (in vitro) | ED50 [1] | Plasma concentration of test substance [2] | IC50 (hERG current)
1 | CC[C@]1(c2cc(NS(=O)(=O)C3CC3)ccc2F)[C@@H]2CN(CCCN3CCC(F)(F)C3)C[C@@H]21 [Example 9-(b), N-(3-{(1R,5S,6r)-3-[3-(3,3-difluoropyrrolidin-1-yl)propyl]-6-ethyl-3-azabicyclo[3.1.0]hexan-6-yl}-4-fluorophenyl)cyclopropanesulfonamide hydrochloride] | 2.5 nM | 0.173 | – | – | –
2 | CC[C@]1(c2cc(NS(=O)(=O)C3CC3)ccc2F)[C@@H]2CN(CC3(OC)Cc4ccccc4C3)C[C@@H]21 [Example 11-(b), N-(3-{(1R,5S,6r)-6-ethyl-3-[(2-methoxy-2,3-dihydro-1H-inden-2-yl)methyl]-3-azabicyclo[3.1.0]hexan-6-yl}-4-fluorophenyl)cyclopropanesulfonamide hydrochloride] | 2.8 nM | – | – | – | –
3 | C=C[C@]1(c2cccc(NS(=O)(=O)C3CC3)c2)[C@@H]2CN(CC3(O)Cc4ccccc4C3)C[C@@H]21 [Example 19-(b), N-(3-{(1R,5S,6r)-3-[(2-hydroxy-2,3-dihydro-1H-inden-2-yl)methyl]-6-vinyl-3-azabicyclo[3.1.0]hexan-6-yl}phenyl)cyclopropanesulfonamide hydrochloride] | 4.5 nM | 0.009 | – | – | –
4 | CC[C@]1(c2cc(F)cc(NS(=O)(=O)C3CC3)c2)[C@@H]2CN(CC3(OC)Cc4ccccc4C3)C[C@@H]21 [Example 12-(b), N-(3-{(1R,5S,6r)-6-ethyl-3-[(2-methoxy-2,3-dihydro-1H-inden-2-yl)methyl]-3-azabicyclo[3.1.0]hexan-6-yl}-5-fluorophenyl)cyclopropanesulfonamide hydrochloride] | 12 nM | 0.002 | 3.2 mg/kg | 193 nM | –
5 | CCOC1(CCCN2C[C@@H]3[C@H](C2)[C@@]3(CC)c2cccc(NS(=O)(=O)C3CC3)c2)CCC(F)(F)CC1 [Example 14-(b), N-(3-{(1R,5S,6r)-3-[3-(1-ethoxy-4,4-difluorocyclohexyl)propyl]-6-ethyl-3-azabicyclo[3.1.0]hexan-6-yl}phenyl)cyclopropanesulfonamide hydrochloride] | 1.3 nM | – | – | – | –
6 | COC1(CN2C[C@@H]3[C@H](C2)[C@@]3(C)c2cccc(NS(=O)(=O)C3CC3)c2)Cc2ccccc2C1 [Example 18-(b), N-(3-{(1R,5S,6r)-3-[(2-methoxy-2,3-dihydro-1H-inden-2-yl)methyl]-6-methyl-3-azabicyclo[3.1.0]hexan-6-yl}phenyl)cyclopropanesulfonamide hydrochloride] | 16 nM | 0.007 | – | – | 400 nM
7 | CC[C@]1(c2cccc(NS(=O)(=O)C3CC3)c2)[C@@H]2CN(CC3(O)Cc4ccccc4C3)C[C@@H]21 [Example 1-(b), N-(3-{(1R,5S,6r)-6-ethyl-3-[(2-hydroxy-2,3-dihydro-1H-inden-2-yl)methyl]-3-azabicyclo[3.1.0]hexan-6-yl}phenyl)cyclopropanesulfonamide hydrochloride] | 1.5 nM | – | – | – | –
8 | CC[C@]1(c2cccc(NS(=O)(=O)C3CC3)c2)[C@@H]2CN(CC3(O)Cc4cc(F)c(F)cc4C3)C[C@@H]21 [Example 20-(a), N-(3-{(1R,5S,6r)-3-[(5,6-difluoro-2-hydroxy-2,3-dihydro-1H-inden-2-yl)methyl]-6-ethyl-3-azabicyclo[3.1.0]hexan-6-yl}phenyl)cyclopropanesulfonamide] | 4.1 nM | 0.006 | – | – | –
9 | CCOC1(CN2C[C@@H]3[C@H](C2)[C@@]3(CC)c2cccc(NS(=O)(=O)C3CC3)c2)Cc2ccccc2C1 [Example 13-(b), N-(3-{(1R,5S,6r)-3-[(2-ethoxy-2,3-dihydro-1H-inden-2-yl)methyl]-6-ethyl-3-azabicyclo[3.1.0]hexan-6-yl}phenyl)cyclopropanesulfonamide hydrochloride] | 4.1 nM | – | 2.4 mg/kg | 71.9 nM | –
